The results in this text go back to patent publication US20080064736A1, “Substituted 2-Pyrrolidone Derivatives as Fungicides and Insecticides” (Bayer Cropscience AG, priority 2004, published 2008).

The test system of series [1] is Podosphaera leucotricha. The experiment in a line: Podosphaera test (apple)/protective. In kind it is in vivo. Particulars: protective, application rate 100 g/ha, evaluated 7 days after inoculation. The procedure:
Podosphaera Test (Apple)/Protective
(§1) To produce a suitable preparation of active compound, 1 part by weight of active compound is mixed with the stated amounts of solvent and emulsifier, and the concentrate is diluted with water to the desired concentration.
To test for protective activity, young plants are sprayed with the preparation of active compound at the stated rate of application. After the spray coating has dried on, the plants are inoculated with an aqueous spore suspension of the causal agent of apple mildew (Podosphaera leucotricha). The plants are then placed in a greenhouse at approximately 23° C. and a relative atmospheric humidity of approximately 70%.
The test is evaluated 7 days after the inoculation. 0% means an efficacy which corresponds to that of the control, while an efficacy of 100% means that no disease is observed.

Series [2] has as its system Venturia inaequalis. The experiment in a line: Venturia test (apples)/protective. In kind it is in vivo. Particulars: protective, application rate 100 g/ha, evaluated 10 days after inoculation. On the procedure: Venturia Test (Apples)/Protective
as §1
To test for protective activity, young plants are sprayed with the preparation of active compound at the stated rate of application. After the spray coating has dried on, the plants are inoculated with an aqueous conidia suspension of the causal agent of apple scab (Venturia inaequalis) and then remain for 1 day in an incubation cabinet at approximately 20° C. and a relative atmospheric humidity of 100%.
The plants are then placed in a greenhouse at approximately 21° C. and a relative atmospheric humidity of approximately 90%.
The test is evaluated 10 days after the inoculation. 0% means an efficacy which corresponds to that of the control, while an efficacy of 100% means that no disease is observed.

For series [3], the system named is Botrytis cinerea. The experiment in a line: Botrytis test (beans)/protective. In kind it is in vivo. Particulars: protective, application rate 500 g/ha, lesion size 2 days after inoculation. The procedure: Botrytis Test (Beans)/Protective
as §1
To test for protective activity, young plants are sprayed with the preparation of active compound. After the spray coating has dried on, 2 small pieces of agar covered with growth of Botrytis cinerea are placed on each leaf. The inoculated plants are placed in a darkened chamber at 20° C. and a relative atmospheric humidity of 100%.
2 days after the inoculation, the size of the lesions on the leaves is evaluated. 0% means an efficacy which corresponds to that of the control, while an efficacy of 100% means that no disease is observed.

Series [4] has as its system sphaerotheca fuliginea. The experiment in a line: Sphaerotheca-test (cucumber). It counts as in vivo. The conditions noted are these: protective, application rate 500 ppm, evaluated 7 days after inoculation.
In series [5] the test system is Spodoptera frugiperda. The experiment in a line: Spodoptera frugiperda-test (sensible strain). The conditions noted are these: cabbage leaves dipped, larvae, after six days. It counts as in vivo. On the procedure: Spodoptera frugiperda-Test (Sensible Strain)
Pieces of cabbage leaves (Brassica oleracea) are treated by being dipped into the preparation of the active compound of the desired concentration and are infested with larvae of the fall army worm (Spodoptera frugiperda) as long as the leaves are still moist.
After six days the mortality in % is determined. 100% means that all the caterpillars have been killed; 0% means that none of the caterpillars have been killed.

As usually defined, the chromatographic logP is a lipophilicity value derived from retention on a column. In the case of `CCCCCC[C@H]1C(=O)N[C@@]2([C@@H](O)C(C)C)C(=O)O[C@@]12C` [(1R,4R,5S)-4-hexyl-1-[(1S)-1-hydroxy-2-methylpropyl]-5-methyl-6-oxa-2-azabicyclo[3.2.0]heptane-3,7-dione], the chromatographic logP stood at 2.87.

`CCCCCC[C@@H]1C(=O)N[C@@]2([C@@H](O)C(C)C)C(=O)O[C@@]12C` [(1R,4S,5S)-4-hexyl-1-[(1S)-1-hydroxy-2-methylpropyl]-5-methyl-6-oxa-2-azabicyclo[3.2.0]heptane-3,7-dione] gave a chromatographic logP of 2.79.

In the case of `CCCCCC[C@H]1C(=O)N[C@@]2([C@@H](O)[C@@H]3C=CCCC3)C(=O)O[C@@]12C` [Example 1, (1R,4R,5S)-1-[(S)-(1S)-2-cyclohexen-1-yl(hydroxy)methyl]-4-hexyl-5-methyl-6-oxa-2-azabicyclo[3.2.0]heptane-3,7-dione], the efficacy in series [1] is given as 100%; in series [2], 100%; in series [3], “more than 90%”; in series [4], 70%. In series [5], the “efficacy (mortality)” value is reported as 100%.

In series [4], `CCCCCC[C@H]1C(=O)N[C@@]2([C@@H](O)C(C)C)C(=O)O[C@@]12C` [Example 8, (1R,4R,5S)-4-hexyl-1-[(1S)-1-hydroxy-2-methylpropyl]-5-methyl-6-oxa-2-azabicyclo[3.2.0]heptane-3,7-dione] returned an efficacy of 70%.
